In ChEMBL document CHEMBL3576807, “Crystal Structures of mPGES-1 Inhibitor Complexes Form a Basis for the Rational Design of Potent Analgesic and Anti-Inflammatory Therapeutics” (J Med Chem, 2015):

Key:
Prostaglandin E synthase [1] = target: T1, Prostaglandin E synthase (Homo sapiens, UniProt O14684); assay: Inhibition of recombinant human mPGES-1 expressed in human 293E cell microsomes using PGH2 as substrate assessed as PGE2 production after 2.5 mins by LC/MS analysis
T1 sequence (O14684 whole entry): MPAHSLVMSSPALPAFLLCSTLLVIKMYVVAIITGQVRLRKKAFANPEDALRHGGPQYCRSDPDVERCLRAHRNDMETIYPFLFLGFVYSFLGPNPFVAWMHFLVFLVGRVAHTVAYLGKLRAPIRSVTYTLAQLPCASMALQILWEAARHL

[2] = target: T2, Prostaglandin E synthase (Homo sapiens) (UniProt O14684); assay: Binding affinity to mPGES-1 (unknown origin) assessed as increase in protein aggregation temperature at 0.1 mM by differential static light scattering method
T2 sequence (whole entry): T1 sequence (O14684 whole entry)

Prostaglandin E synthase [3] = target: T1, Prostaglandin E synthase; assay: Inhibition of purified mPGES-1 (1 to 152) (unknown origin) extracted from detergent-solubilized baculovirus-infected insect Sf9 cell membranes using PGH2 as substrate assessed as PGE2 production after 2.5 mins by LC/MS analysis

| IC50 (Prostaglandin E synthase [1]) | deltaT [2] | IC50 (Prostaglandin E synthase [3]) | Structure (SMILES) |
| --- | --- | --- | --- |
| 0.216 µM | 7.3 °C | 2.58 µM | CC(C)Oc1ccc(-n2c(C(=O)O)cc3cc(-c4ccc(C(C)(C)C)cc4)ccc32)cc1 |
| 0.007 µM | 7.8 °C | 3.94 µM | Fc1cccc(Cl)c1-c1nc(-c2ccc(C#Cc3ccc(C(F)(F)F)cc3)nc2)c(Br)[nH]1 |
